Measured values taken from PMC11243598, “Inhibition of Monoamine Oxidases by Pyridazinobenzylpiperidine Derivatives” (Molecules, 2024).

Experiments:
MAO-B = target: T1, MAO-B (Homo sapiens, UniProt P27338); assay: biochemical; details: for remaining activity at 10 µM: read-out: Residual Activity at 10 µM (%) MAO-B
T1 sequence (P27338 1-520): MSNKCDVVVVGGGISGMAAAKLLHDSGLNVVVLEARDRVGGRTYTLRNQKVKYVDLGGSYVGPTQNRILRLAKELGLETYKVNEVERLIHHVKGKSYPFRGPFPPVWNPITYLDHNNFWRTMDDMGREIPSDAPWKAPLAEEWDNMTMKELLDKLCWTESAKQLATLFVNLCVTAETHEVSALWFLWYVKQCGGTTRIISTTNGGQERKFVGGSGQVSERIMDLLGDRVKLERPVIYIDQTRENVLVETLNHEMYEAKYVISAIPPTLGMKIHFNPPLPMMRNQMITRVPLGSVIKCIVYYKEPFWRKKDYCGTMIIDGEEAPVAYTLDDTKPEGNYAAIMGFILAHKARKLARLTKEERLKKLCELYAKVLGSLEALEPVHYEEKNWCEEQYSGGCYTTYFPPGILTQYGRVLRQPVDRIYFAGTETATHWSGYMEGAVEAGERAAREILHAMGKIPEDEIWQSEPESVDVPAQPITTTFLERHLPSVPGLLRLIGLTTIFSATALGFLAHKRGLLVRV

hMAO-A = target: T2, hMAO-A (Homo sapiens, UniProt P21397); assay: Inhibition of recombinant hMAO-A, kynuramine substrate, continuous absorbance method; details: for remaining activity at 10 µM: read-out: Residual Activity at 10 µM (%) MAO-A
T2 sequence (P21397 1-527): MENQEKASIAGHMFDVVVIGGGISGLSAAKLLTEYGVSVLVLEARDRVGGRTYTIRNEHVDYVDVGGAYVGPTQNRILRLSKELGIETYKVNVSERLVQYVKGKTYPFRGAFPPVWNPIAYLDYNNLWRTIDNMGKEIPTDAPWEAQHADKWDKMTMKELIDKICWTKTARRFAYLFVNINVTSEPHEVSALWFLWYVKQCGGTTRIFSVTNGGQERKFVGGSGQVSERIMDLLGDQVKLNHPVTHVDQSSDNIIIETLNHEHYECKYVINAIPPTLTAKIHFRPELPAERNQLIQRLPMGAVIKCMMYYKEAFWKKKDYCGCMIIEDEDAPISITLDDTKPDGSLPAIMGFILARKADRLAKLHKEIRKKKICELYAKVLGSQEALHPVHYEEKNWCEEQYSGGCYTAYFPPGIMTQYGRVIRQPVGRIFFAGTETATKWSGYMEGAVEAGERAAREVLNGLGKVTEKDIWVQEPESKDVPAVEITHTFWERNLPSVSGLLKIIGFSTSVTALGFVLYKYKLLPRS

[1] = PAMPA for blood-brain barrier permeation; type: in vitro ADME; details: class from Pe

Row | SMILES | IC50 (MAO-B) | remaining activity at 10 µM (MAO-B) | IC50 (hMAO-A) | remaining activity at 10 µM (hMAO-A) | Prediction (BBB permeation class) [1]
1 | O=C(Cn1nc(N2CCC(Cc3ccccc3)CC2)ccc1=O)NN=Cc1ccccc1 [Compound S1] | 7.05 ± 0.086 µM | 36.5 ± 8.32% | 16.47 ± 0.047 µM | 63.4 ± 2.24% | 
2 | O=C(Cn1nc(N2CCC(Cc3ccccc3)CC2)ccc1=O)NN=Cc1ccc(Br)cc1 [Compound S2] | 10.7 ± 0.565 µM | 56.5 ± 4.99% | 10.9 ± 1.19 µM | 54.8 ± 3.1% | 
3 | O=C(Cn1nc(N2CCC(Cc3ccccc3)CC2)ccc1=O)NN=Cc1ccccc1Br [Compound S3, N′-2-bromobenzylidene-2-(3-(4-benzylpiperidin-1-yl)-6-oxopyridazin-1(6H)-yl)acetohydrazide] | 4.75 ± 0.155 µM | 50.59 ± 0.01% | 4.13 ± 1.12 µM | 34.4 ± 1.93% | 
4 | O=C(Cn1nc(N2CCC(Cc3ccccc3)CC2)ccc1=O)NN=Cc1cccc(Br)c1 [Compound S4, N′-3-bromobenzylidene-2-(3-(4-benzylpiperidin-1-yl)-6-oxopyridazin-1(6H)-yl)acetohydrazide] | 6.17 ± 0.155 µM | 33.5 ± 2.5% | 27 ± 0.797 µM | 56.9 ± 9.78% | 
5 | O=C(Cn1nc(N2CCC(Cc3ccccc3)CC2)ccc1=O)NN=Cc1ccc(Cl)cc1 [Compound S6] | 4.95 ± 0.353 µM | 26.7 ± 3.83% | 7.14 ± 1.07 µM | 42.2 ± 3.22% | 
6 | O=C(Cn1nc(N2CCC(Cc3ccccc3)CC2)ccc1=O)NN=Cc1cccc(F)c1 [Compound S7, N′-3-fluorobenzylidene-2-(3-(4-benzylpiperidin-1-yl)-6-oxopyridazin-1(6H)-yl)acetohydrazide] | 1.711 ± 0.009 µM | 1.03 ± 4.63% | 4.74 ± 0.624 µM | 12.8 ± 7.24% | 
7 | O=C(Cn1nc(N2CCC(Cc3ccccc3)CC2)ccc1=O)NN=Cc1ccc(F)cc1 [Compound S8] | 5.37 ± 0.123 µM | 31.9 ± 2.62% | 7.99 ± 1.28 µM | 22.4 ± 3.07% | 
8 | Cc1ccccc1C=NNC(=O)Cn1nc(N2CCC(Cc3ccccc3)CC2)ccc1=O [Compound S9, N′-2-methylbenzylidene-2-(3-(4-benzylpiperidin-1-yl)-6-oxopyridazin-1(6H)-yl)acetohydrazide] | 7.24 ± 0.994 µM | 32.9 ± 5.19% | 4.51 ± 0.589 µM | 23.2 ± 1.2% | 
9 | Cc1cccc(C=NNC(=O)Cn2nc(N3CCC(Cc4ccccc4)CC3)ccc2=O)c1 [Compound S10, N′-3-methylbenzylidene-2-(3-(4-benzylpiperidin-1-yl)-6-oxopyridazin-1(6H)-yl)acetohydrazide] | 3.549 ± 0.001 µM | 9.31 ± 2.04% | 4.53 ± 0.424 µM | 16.1 ± 4.26% | 
10 | COc1cccc(C=NNC(=O)Cn2nc(N3CCC(Cc4ccccc4)CC3)ccc2=O)c1 [Compound S11] | 1.71 ± 0.437 µM | 14.5 ± 1.14% | 5.064 ± 0.006 µM | 16.6 ± 9.23% | 
11 | COc1ccc(C=NNC(=O)Cn2nc(N3CCC(Cc4ccccc4)CC3)ccc2=O)cc1 [Compound S12] | 6.463 ± 0.035 µM | 38.46 ± 0.36% | 4.642 ± 0.001 µM | 7.71 ± 8.25% | 
12 | CN(C)c1ccc(C=NNC(=O)Cn2nc(N3CCC(Cc4ccccc4)CC3)ccc2=O)cc1 [Compound S13] | 6.48 ± 0.559 µM | 37.6 ± 2.5% | 5.63 ± 1.18 µM | 36.1 ± 1.01% | 
13 | O=C(Cn1nc(N2CCC(Cc3ccccc3)CC2)ccc1=O)NN=Cc1ccc([N+](=O)[O-])cc1 [Compound S14] | 3.62 ± 0.54 µM | 39.8 ± 4.14% | 24.2 ± 0.283 µM | 67.1 ± 5.19% | 
14 | CCc1ccc(C=NNC(=O)Cn2nc(N3CCC(Cc4ccccc4)CC3)ccc2=O)cc1 [Compound S15, N′-4-ethylbenzylidene-2-(3-(4-benzylpiperidin-1-yl)-6-oxopyridazin-1(6H)-yl)acetohydrazide] | 5.34 ± 0.667 µM | 54.4 ± 4.05% | 3.69 ± 0.655 µM | 30.1 ± 8.1% | 
15 | N#Cc1cccc(C=NNC(=O)Cn2nc(N3CCC(Cc4ccccc4)CC3)ccc2=O)c1 [Compound S17, N′-3-cyanobenzylidene-2-(3-(4-benzylpiperidin-1-yl)-6-oxopyridazin-1(6H)-yl)acetohydrazide] | 3.1 ± 0.088 µM | 0% | 6.28 ± 0.306 µM | 9.98 ± 0.57% | 
16 | N#Cc1ccc(C=NNC(=O)Cn2nc(N3CCC(Cc4ccccc4)CC3)ccc2=O)cc1 [Compound S18, N′-4-cyanobenzylidene-2-(3-(4-benzylpiperidin-1-yl)-6-oxopyridazin-1(6H)-yl)acetohydrazide] | 3.51 ± 0.811 µM | 48.37 ± 0.08% | 7.19 ± 0.201 µM | 35.9 ± 2.54% | 
17 | COc1ccccc1C=NNC(=O)Cn1nc(N2CCC(Cc3ccccc3)CC2)ccc1=O [Compound S19, N′-2-methoxybenzylidene-2-(3-(4-benzylpiperidin-1-yl)-6-oxopyridazin-1(6H)-yl)acetohydrazide] |  | 20.8 ± 1.76% | 4.66 ± 0.307 µM | 7.83 ± 2.05% | 
18 | COc1cc(C=NNC(=O)Cn2nc(N3CCC(Cc4ccccc4)CC3)ccc2=O)cc(OC)c1 [Compound S20, N′-3,5-dimethoxybenzylidene-2-(3-(4-benzylpiperidin-1-yl)-6-oxopyridazin-1(6H)-yl)acetohydrazide] | 3.63 ± 0.142 µM | 11.7 ± 2.41% | 19 ± 2.71 µM | 68 ± 4.21% | 
19 | COc1cc(OC)c(C=NNC(=O)Cn2nc(N3CCC(Cc4ccccc4)CC3)ccc2=O)c(OC)c1 [Compound S21, N′-2,4,6-trimethoxybenzylidene-2-(3-(4-benzylpiperidin-1-yl)-6-oxopyridazin-1(6H)-yl)acetohydrazide] | 6.12 ± 0.662 µM | 48.5 ± 6.43% | 7.47 ± 0.344 µM | 32.8 ± 2.18% | 
20 | COc1cccc(C=NNC(=O)Cn2nc(N3CCC(Cc4ccccc4)CC3)ccc2=O)c1OC [Compound S22, N′-2,3-dimethoxybenzylidene-2-(3-(4-benzylpiperidin-1-yl)-6-oxopyridazin-1(6H)-yl)acetohydrazide] | 7.87 ± 0.208 µM | 39 ± 2.83% | 5.94 ± 0.264 µM | -8.5 ± 2.12% | 
21 | COc1cc(C=NNC(=O)Cn2nc(N3CCC(Cc4ccccc4)CC3)ccc2=O)cc(OC)c1OC [Compound S23, N′-3,4,5-trimethoxybenzylidene-2-(3-(4-benzylpiperidin-1-yl)-6-oxopyridazin-1(6H)-yl)acetohydrazide] | 10.9 ± 0.405 µM | 53.1 ± 2.67% | 28.4 ± 2.95 µM | 78.79 ± 0.3% | 
22 | COc1ccc(C=NNC(=O)Cn2nc(N3CCC(Cc4ccccc4)CC3)ccc2=O)c(OC)c1 [Compound S24, N′-2,4-dimethoxybenzylidene-2-(3-(4-benzylpiperidin-1-yl)-6-oxopyridazin-1(6H)-yl)acetohydrazide] | 10.7 ± 2.48 µM | 54.7 ± 3.76% | 4.13 ± 0.107 µM | 20.7 ± 1.34% | 
23 | C#CCN(C)Cc1ccccc1 [Pargyline, reference compound] |  |  |  | 19.9 ± 6.82% | 
24 | C#CCN(C)[C@H](C)Cc1ccccc1 [Selegiline, reference compound] |  |  |  |  | CNS+ (Pe (10^−6 cm·s^−1) > 4.00: CNS+ (high permeation))
